PubChem BioAssay AID248 (DTP/NCI, 2004)
Where “and” joins values, the source holds several entries; their conditions need not be identical. Equal values may be shown once. Inconclusive results and toxic doses are left out. Cut-off read from the data, not from the text of the source: active = T/C of 150% or more; inactive = T/C below 125%.

Tested on: L1210 leukemia ip in BDF1 mice, survival T/C
Assay: NCI In Vivo Anticancer Drug Screen. Data for tumor model L1210 Leukemia (intraperitoneal) in B6D2F1 (BDF1) mice
Details: higher = longer survival
Outline: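 Ratio derived from survival: compound-dosed mice over vehicle-dosed mice, all bearing a transplantable tumor.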

Measured: T/C

CO[C@H](C(=O)[C@@H](O)[C@@H](C)O)[C@@H]1Cc2cc3cc(OC4CC(OC5CC(O)C(O)C(C)O5)C(O)C(C)O4)c(C)c(O)c3c(O)c2C(=O)[C@H]1OC1CC(OC2CC(OC3CC(C)(O)C(O)C(C)O3)C(O)C(C)O2)C(O)C(C)O1 (some centres undefined)
inactive: endpoint: mean survival time, dose: 0.13 mg/kg/injection, schedule: Q01DX001 (iv), vehicle: water 86 % of control | endpoint: mean survival time, dose: 0.15 mg/kg/injection, schedule: Q01DX015 (ip), vehicle: saline 93 % of control | endpoint: mean survival time, dose: 0.25 mg/kg/injection, schedule: Q01DX001 (ip), vehicle: water 104 % of control | endpoint: mean survival time, dose: 0.25 mg/kg/injection, schedule: Q01DX001 (iv), vehicle: water 96 % of control | endpoint: mean survival time, dose: 0.25 mg/kg/injection, schedule: Q01DX Z (ip), vehicle: saline 98 % of control | endpoint: mean survival time, dose: 0.31 mg/kg/injection, schedule: Q01DX015 (ip), vehicle: saline 104 % of control | endpoint: mean survival time, dose: 0.37 mg/kg/injection, schedule: Q01DX001 (ip), vehicle: water 98 % of control | endpoint: mean survival time, dose: 0.5 mg/kg/injection, schedule: Q01DX001 (ip), vehicle: saline 98 % of control and 101 % of control | endpoint: mean survival time, dose: 0.5 mg/kg/injection, schedule: Q01DX001 (ip), vehicle: water 95 % of control and 97 % of control | endpoint: mean survival time, dose: 0.5 mg/kg/injection, schedule: Q01DX001 (iv), vehicle: water 100 % of control | endpoint: mean survival time, dose: 0.5 mg/kg/injection, schedule: Q01DX Z (ip), vehicle: saline 107 % of control | endpoint: mean survival time, dose: 0.62 mg/kg/injection, schedule: Q01DX015 (ip), vehicle: saline 102 % of control | endpoint: mean survival time, dose: 1.0 mg/kg/injection, schedule: Q01DX001 (ip), vehicle: saline 97 % of control | endpoint: mean survival time, dose: 1.0 mg/kg/injection, schedule: Q01DX Z (ip), vehicle: saline 103 % of control | endpoint: mean survival time, dose: 1.25 mg/kg/injection, schedule: Q01DX001 (ip), vehicle: saline 109 % of control | endpoint: mean survival time, dose: 1.25 mg/kg/injection, schedule: Q01DX015 (ip), vehicle: saline 96 % of control | endpoint: mean survival time, dose: 2.0 mg/kg/injection, schedule: Q01DX001 (ip), vehicle: saline 101 % of control | endpoint: mean survival time, dose: 2.5 mg/kg/injection, schedule: Q01DX001 (ip), vehicle: saline 109 % of control | endpoint: mean survival time, dose: 10.0 mg/kg/injection, schedule: Q01DX001 (ip), vehicle: saline 91 % of control | endpoint: mean survival time, dose: 1.5 micrograms/kg/injection, schedule: Q01DX009 (ip), vehicle: saline 101 % of control and 114 % of control | endpoint: mean survival time, dose: 3.0 micrograms/kg/injection, schedule: Q01DX009 (ip), vehicle: saline 100 % of control and 104 % of control | endpoint: mean survival time, dose: 6.0 micrograms/kg/injection, schedule: Q01DX009 (ip), vehicle: saline 95 % of control and 97 % of control | endpoint: mean survival time, dose: 12.0 micrograms/kg/injection, schedule: Q01DX009 (ip), vehicle: saline 94 % of control and 95 % of control | endpoint: mean survival time, dose: 12.0 micrograms/kg/injection, schedule: Q04DX002 (ip), vehicle: saline 97 % of control and 108 % of control | endpoint: mean survival time, dose: 22.0 micrograms/kg/injection, schedule: Q01DX Z (ip), vehicle: water 97 % of control | endpoint: mean survival time, dose: 22.0 micrograms/kg/injection, schedule: Q02DX Z (ip), vehicle: water 88 % of control | endpoint: mean survival time, dose: 23.0 micrograms/kg/injection, schedule: Q04DX002 (ip), vehicle: saline 101 % of control and 90 % of control | endpoint: mean survival time, dose: 25.0 micrograms/kg/injection, schedule: Q01DX009 (ip), vehicle: saline 99 % of control and 100 % of control | endpoint: mean survival time, dose: 33.0 micrograms/kg/injection, schedule: Q01DX Z (ip), vehicle: water 91 % of control | endpoint: mean survival time, dose: 33.0 micrograms/kg/injection, schedule: Q02DX Z (ip), vehicle: water 96 % of control | endpoint: mean survival time, dose: 45.0 micrograms/kg/injection, schedule: Q04DX002 (ip), vehicle: saline 94 % of control and 103 % of control | endpoint: mean survival time, dose: 50.0 micrograms/kg/injection, schedule: Q01DX009 (ip), vehicle: saline 103 % of control and 110 % of control | endpoint: mean survival time, dose: 50.0 micrograms/kg/injection, schedule: Q01DX Z (ip), vehicle: water 88 % of control | endpoint: mean survival time, dose: 50.0 micrograms/kg/injection, schedule: Q02DX Z (ip), vehicle: water 91 % of control | endpoint: mean survival time, dose: 62.5 micrograms/kg/injection, schedule: Q01DX Z (ip), vehicle: saline 97 % of control | endpoint: mean survival time, dose: 75.0 micrograms/kg/injection, schedule: Q01DX Z (ip), vehicle: water 91 % of control | endpoint: mean survival time, dose: 75.0 micrograms/kg/injection, schedule: Q02DX Z (ip), vehicle: water 97 % of control | endpoint: mean survival time, dose: 90.0 micrograms/kg/injection, schedule: Q04DX002 (ip), vehicle: saline 100 % of control and 106 % of control | endpoint: mean survival time, dose: 125.0 micrograms/kg/injection, schedule: Q01DX009 (ip), vehicle: clinical formulation 103 % of control | endpoint: mean survival time, dose: 125.0 micrograms/kg/injection, schedule: Q01DX009 (ip), vehicle: saline 105 % of control | endpoint: mean survival time, dose: 125.0 micrograms/kg/injection, schedule: Q01DX Z (ip), vehicle: saline 107 % of control | endpoint: mean survival time, dose: 190.0 micrograms/kg/injection, schedule: Q04DX002 (ip), vehicle: saline 87 % of control and 90 % of control | endpoint: mean survival time, dose: 250.0 micrograms/kg/injection, schedule: Q01DX009 (ip), vehicle: clinical formulation 103 % of control | endpoint: mean survival time, dose: 250.0 micrograms/kg/injection, schedule: Q01DX009 (ip), vehicle: saline 107 % of control | endpoint: mean survival time, dose: 250.0 micrograms/kg/injection, schedule: Q01DX Z (ip), vehicle: saline 109 % of control | endpoint: mean survival time, dose: 370.0 micrograms/kg/injection, schedule: Q04DX002 (ip), vehicle: saline 97 % of control and 103 % of control | endpoint: mean survival time, dose: 375.0 micrograms/kg/injection, schedule: Q01DX009 (ip), vehicle: saline 108 % of control | endpoint: mean survival time, dose: 500.0 micrograms/kg/injection, schedule: Q01DX009 (ip), vehicle: clinical formulation 108 % of control | endpoint: mean survival time, dose: 500.0 micrograms/kg/injection, schedule: Q01DX009 (ip), vehicle: saline 113 % of control | endpoint: mean survival time, dose: 500.0 micrograms/kg/injection, schedule: Q01DX Z (ip), vehicle: saline 113 % of control | endpoint: mean survival time, dose: 750.0 micrograms/kg/injection, schedule: Q01DX009 (ip), vehicle: saline 108 % of control | endpoint: mean survival time, dose: 1000.0 micrograms/kg/injection, schedule: Q01DX009 (ip), vehicle: clinical formulation 109 % of control | endpoint: mean survival time, dose: 1000.0 micrograms/kg/injection, schedule: Q01DX009 (ip), vehicle: saline 114 % of control | endpoint: mean survival time, dose: 1500.0 micrograms/kg/injection, schedule: Q01DX009 (ip), vehicle: saline 108 % of control | endpoint: mean survival time, dose: 3000.0 micrograms/kg/injection, schedule: Q01DX009 (ip), vehicle: saline 113 % of control | endpoint: median survival time, dose: 0.25 mg/kg/injection, schedule: Q01DX009 (ip), vehicle: saline 100 % of control and 111 % of control | endpoint: median survival time, dose: 0.5 mg/kg/injection, schedule: Q01DX009 (ip), vehicle: saline 106 % of control and 122 % of control

O=C(O)c1occ(Cl)c1Cl
inactive: endpoint: mean survival time, dose: 25.0 mg/kg/injection, schedule: Q01DX009 (ip), vehicle: water 101 % of control | endpoint: mean survival time, dose: 50.0 mg/kg/injection, schedule: Q01DX009 (ip), vehicle: water 105 % of control | endpoint: mean survival time, dose: 100.0 mg/kg/injection, schedule: Q01DX001 (ip), vehicle: saline 103 % of control | endpoint: mean survival time, dose: 100.0 mg/kg/injection, schedule: Q01DX009 (ip), vehicle: Klucel (hydroxypropylcellulose) (HPC) 97 % of control | endpoint: mean survival time, dose: 100.0 mg/kg/injection, schedule: Q01DX009 (ip), vehicle: water 91 % of control | endpoint: mean survival time, dose: 100.0 mg/kg/injection, schedule: Q04DX003 (ip), vehicle: water 102 % of control | endpoint: mean survival time, dose: 200.0 mg/kg/injection, schedule: Q01DX001 (ip), vehicle: saline 101 % of control | endpoint: mean survival time, dose: 200.0 mg/kg/injection, schedule: Q01DX009 (ip), vehicle: Klucel (hydroxypropylcellulose) (HPC) 95 % of control | endpoint: mean survival time, dose: 200.0 mg/kg/injection, schedule: Q04DX003 (ip), vehicle: water 90 % of control

Cc1cc(C)c(CCc2c(C)cc(C)cc2C)c(C)c1
inactive: endpoint: mean survival time, dose: 200.0 mg/kg/injection, schedule: Q04DX003 (ip), vehicle: saline with Tween-80 104 % of control | endpoint: mean survival time, dose: 400.0 mg/kg/injection, schedule: Q04DX003 (ip), vehicle: saline with Tween-80 102 % of control

Nc1nc2ncsc2c(=O)[nH]1
inactive: endpoint: mean survival time, dose: 100.0 mg/kg/injection, schedule: Q01DX001 (ip), vehicle: saline with Tween-80 89 % of control | endpoint: mean survival time, dose: 200.0 mg/kg/injection, schedule: Q01DX001 (ip), vehicle: saline with Tween-80 89 % of control | endpoint: mean survival time, dose: 400.0 mg/kg/injection, schedule: Q01DX001 (ip), vehicle: saline with Tween-80 102 % of control

CCC1(c2ccccc2)OC1C(=O)OCC(C)C (centres undefined)
inactive: endpoint: mean survival time, dose: 100.0 mg/kg/injection, schedule: Q04DX002 (ip), vehicle: saline 112 % of control | endpoint: mean survival time, dose: 200.0 mg/kg/injection, schedule: Q04DX002 (ip), vehicle: saline 97 % of control | endpoint: mean survival time, dose: 400.0 mg/kg/injection, schedule: Q04DX002 (ip), vehicle: saline 101 % of control

COC(=O)C1(C)CCCC2(C)C1CCC13C=C(C(C)C)C(CC1C(=O)O)CC23 (centres undefined)
inactive: endpoint: mean survival time, dose: 100.0 mg/kg/injection, schedule: Q01DX009 (ip), vehicle: saline with Tween-80 95 % of control | endpoint: mean survival time, dose: 200.0 mg/kg/injection, schedule: Q01DX009 (ip), vehicle: saline with Tween-80 93 % of control | endpoint: mean survival time, dose: 400.0 mg/kg/injection, schedule: Q01DX009 (ip), vehicle: saline with Tween-80 87 % of control

O=C(O)/C=C/c1ccc([N+](=O)[O-])s1
inactive: endpoint: mean survival time, dose: 100.0 mg/kg/injection, schedule: Q04DX002 (ip), vehicle: Klucel (hydroxypropylcellulose) (HPC) 90 % of control | endpoint: mean survival time, dose: 200.0 mg/kg/injection, schedule: Q04DX002 (ip), vehicle: Klucel (hydroxypropylcellulose) (HPC) 90 % of control
